pEC50, pIC50: −log10 of the molar value. Where two headings read alike, the source gives them in different places.
How the values were obtained:
[1] = Metabolic stability assay; assay type: in vitro ADME; conditions: percentage metabolic stability in human liver microsomes
Procedure: The metabolic stability assay was performed in Wuxi. 1 μM, 15 min. The kinase selectivity testing was performed in ProQinase GmbH, Germany.

FLT3 = target: T1, FLT3 (Homo sapiens, UniProt P36888); experiment: FLT3 biochemical assay (ADP Hunter);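 also: FLT3 enzymatic activity quantified through the ADP produced by the kinase reaction, detected with an ADP Hunter readout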
T1 sequence (P36888 27-993): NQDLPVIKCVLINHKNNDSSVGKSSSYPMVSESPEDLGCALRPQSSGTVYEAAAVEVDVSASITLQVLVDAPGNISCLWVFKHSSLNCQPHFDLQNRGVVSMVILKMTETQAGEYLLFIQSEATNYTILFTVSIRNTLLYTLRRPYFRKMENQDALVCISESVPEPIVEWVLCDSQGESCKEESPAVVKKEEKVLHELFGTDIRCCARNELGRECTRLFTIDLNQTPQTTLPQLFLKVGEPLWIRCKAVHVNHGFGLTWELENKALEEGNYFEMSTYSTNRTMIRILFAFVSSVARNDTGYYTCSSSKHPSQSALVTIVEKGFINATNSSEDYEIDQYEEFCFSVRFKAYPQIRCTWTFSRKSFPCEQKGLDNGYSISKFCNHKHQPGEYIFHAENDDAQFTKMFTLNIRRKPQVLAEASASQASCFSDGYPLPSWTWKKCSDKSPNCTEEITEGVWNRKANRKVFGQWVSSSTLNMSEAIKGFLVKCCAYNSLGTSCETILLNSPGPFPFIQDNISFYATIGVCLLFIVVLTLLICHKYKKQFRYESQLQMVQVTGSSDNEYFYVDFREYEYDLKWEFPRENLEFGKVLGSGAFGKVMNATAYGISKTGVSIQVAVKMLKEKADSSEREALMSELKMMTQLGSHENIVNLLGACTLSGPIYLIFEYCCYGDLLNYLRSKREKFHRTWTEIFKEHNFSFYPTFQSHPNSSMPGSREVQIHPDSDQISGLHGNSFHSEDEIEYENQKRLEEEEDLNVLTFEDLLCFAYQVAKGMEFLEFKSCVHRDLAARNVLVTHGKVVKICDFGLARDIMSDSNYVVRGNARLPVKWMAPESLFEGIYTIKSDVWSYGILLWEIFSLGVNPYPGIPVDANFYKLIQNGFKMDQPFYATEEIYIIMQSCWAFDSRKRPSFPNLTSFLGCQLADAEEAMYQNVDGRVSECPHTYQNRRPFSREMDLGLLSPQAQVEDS

panel of 24 kinases = experiment: Kinase selectivity testing (percentage inhibition of 24 kinases at 1 μM); assay type: biochemical; conditions: proquinase; for % inhibiton at 1 uM AKT2: AKT2, 1 uM; for % inhibiton at 1 uM CHK1: CHK1, 1 uM; for % inhibiton at 1 uM CK1 Alpha 1: CK1 Alpha 1, 1 uM; for % inhibiton at 1 uM FGFR1: FGFR1, 1 uM; for % inhibiton at 1 uM JAK2: JAK2, 1 uM; for % inhibiton at 1 uM MEK1: MEK1, 1 uM; for % inhibiton at 1 uM PAK1: PAK1, 1 uM; for % inhibiton at 1 uM PDK1: PDK1, 1 uM; for % inhibiton at 1 uM PLK1: PLK1, 1 uM; for % inhibiton at 1 uM RPS5 KA1: RPS5 KA1, 1 uM; for % inhibiton at 1 uM SGK1: SGK1, 1 uM
PIM-2 = target: T2, PIM-2 (Homo sapiens, UniProt Q9P1W9); experiment: PIM-2 biochemical assay (ADP Hunter); conditions: semi-quantitative class; read-out: PIM2 IC50;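 also: recombinant N-terminally His-tagged human enzyme, kinase activity quantified by detection of ADP formed as the direct reaction product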
T2 construct: histidine tag (N); made in house
T2 sequence (Q9P1W9 whole entry): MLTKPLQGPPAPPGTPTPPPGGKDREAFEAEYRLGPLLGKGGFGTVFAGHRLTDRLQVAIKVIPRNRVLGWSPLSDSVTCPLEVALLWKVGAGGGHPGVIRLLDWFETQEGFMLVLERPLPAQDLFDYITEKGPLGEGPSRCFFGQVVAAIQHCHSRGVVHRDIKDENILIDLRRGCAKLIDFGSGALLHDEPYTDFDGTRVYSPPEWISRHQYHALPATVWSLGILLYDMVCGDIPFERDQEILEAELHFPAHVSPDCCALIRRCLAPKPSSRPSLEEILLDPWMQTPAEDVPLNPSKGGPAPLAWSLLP

PIM-1 = target: T3, PIM-1 (Homo sapiens, UniProt P11309); experiment: PIM-1 biochemical assay (ADP Hunter); conditions: read-out: PIM1 IC50;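 also: recombinant human PIM-1 carrying a C-terminal His tag, kinase activity quantified via ADP formed as the direct enzymatic product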
T3 construct: histidine tag (C); made in house
T3 sequence (P11309 whole entry): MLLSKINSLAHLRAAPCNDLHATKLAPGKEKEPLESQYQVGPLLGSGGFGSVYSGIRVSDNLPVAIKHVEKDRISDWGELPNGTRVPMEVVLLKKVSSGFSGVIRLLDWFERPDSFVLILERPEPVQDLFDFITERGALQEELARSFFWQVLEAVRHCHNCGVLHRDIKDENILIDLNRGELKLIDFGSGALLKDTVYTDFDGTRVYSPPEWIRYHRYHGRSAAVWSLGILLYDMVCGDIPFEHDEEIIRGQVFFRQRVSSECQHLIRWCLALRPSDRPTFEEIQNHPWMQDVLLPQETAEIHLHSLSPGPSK

[2] = system: H1299 cells overexpressing Pim1 (H1299Pim1); experiment: BAD S112 phosphorylation inhibition assay (In Cell ELISA); assay type: cell-based; conditions: Homo sapiens, NCI-H1299, inhibition of Bad-phosphorylation, read-out: Cell assay BAD_P H1299 PIM1
PIM-3 = target: T4, PIM-3 (Homo sapiens, UniProt Q86V86); experiment: PIM-3 biochemical assay (ADP Hunter); conditions: read-out: PIM3 IC50;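 also: kinase activity read out as the quantity of ADP generated by the enzyme reaction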
T4 construct: purchased Millipore 14-738

tumor cell lines = experiment: Combination assay (MTT in vitro cell proliferation, combination index); assay type: cell-based; conditions: Homo sapiens, NCI-H23, NCIH23, non small cell lung carcinoma; read-out: Pim Inh EC50
[3] = actual IC50 value in parentheses

Compound | Stability in HLM [1] | % inhibiton at 1 uM AKT2 (panel of 24 kinases) | % inhibiton at 1 uM B_RAF V600E (panel of 24 kinases) | % inhibiton at 1 uM CDK8 CYCC (panel of 24 kinases) | % inhibiton at 1 uM CHK1 (panel of 24 kinases) | % inhibiton at 1 uM CK1 Alpha 1 (panel of 24 kinases) | % inhibiton at 1 uM DYRK 1A (panel of 24 kinases) | % inhibiton at 1 uM EGF_R (panel of 24 kinases) | % inhibiton at 1 uM FAK (panel of 24 kinases) | % inhibiton at 1 uM FGFR1 (panel of 24 kinases) | % inhibiton at 1 uM IGF1_R (panel of 24 kinases) | % inhibiton at 1 uM IKK BETA (panel of 24 kinases) | % inhibiton at 1 uM INS_R (panel of 24 kinases) | % inhibiton at 1 uM JAK2 (panel of 24 kinases) | % inhibiton at 1 uM KIT (panel of 24 kinases) | % inhibiton at 1 uM MEK1 (panel of 24 kinases) | % inhibiton at 1 uM MET (panel of 24 kinases) | % inhibiton at 1 uM PDGFR Alpha (panel of 24 kinases) | % inhibiton at 1 uM RPS5 KA1 (panel of 24 kinases) | % inhibiton at 1 uM SGK1 (panel of 24 kinases) | other results
FC(F)(F)Oc1cccc(-n2nnc3ccc(NCC4CC5(CCNCC5)C4)nc32)c1 [2-67] | 92.15% | 0% | 11% | 0% | 11% | 0% | 18% | 13% | 27% | 0% | 25% | 0% | 5% | 0% | 58% | 0% | 2% | 49% | 11% | 7% | % inhibiton at 1 uM PAK1 (panel of 24 kinases): 3%; % inhibiton at 1 uM PDK1 (panel of 24 kinases): 0%; % inhibiton at 1 uM SRC (panel of 24 kinases): 16%
OC1CCC(Nc2ccc3nnn(-c4cccc(OC(F)(F)F)c4)c3n2)CC1 (stereo in doubt) [2-47] | 43.6% |  | 6% |  |  | 2% | 3% | 9% | 6% | 0% | 8% | 4% | 7% | 15% | 2% | 0% | 0% | 0% | 0% | 3% | 
O[C@H]1CC[C@@H](Nc2nc3c(cc2Cl)nnn3-c2cccc(OC(F)(F)F)c2)CC1 [2-85] |  |  |  |  |  |  |  |  |  |  |  |  |  |  |  |  |  |  |  |  | pIC50 (FLT3; semi-quantitative class): 6.00 to 7.00; pIC50 (PIM-2): 6.00 to 7.00; pIC50 (PIM-1; [3]): 7.13; pIC50 (PIM-1; semi-quantitative class): > 7.00; pEC50 [2]: 6.58; pIC50 (PIM-3; semi-quantitative class): 6.00 to 7.00
FC(F)(F)Oc1cccc(-n2nnc3ccc(NC4CC5(CCNCC5)C4)nc32)c1 [2-66] | 91.1% | 0% | 15% | 3% | 13% | 0% | 30% | 18% | 19% | 4% | 16% | 5% | 7% | 3% | 30% | 0% | 3% | 12% | 19% | 2% | % inhibiton at 1 uM PAK1 (panel of 24 kinases): 11%; % inhibiton at 1 uM PDK1 (panel of 24 kinases): 4%; % inhibiton at 1 uM SRC (panel of 24 kinases): 28%
FC(F)(F)Oc1cccc(-n2nnc3ccc(N4CCCC5(CCCN5)CC4)nc32)c1 (stereo not shown) [2-65] | 88.9% | 0% | 3% | 2% | 7% | 0% | 12% | 12% | 31% | 22% | 21% | 0% | 12% | 8% | 63% | 13% | 11% | 57% | 10% | 0% | pIC50 (FLT3; [3]): 7.55; pIC50 (FLT3; semi-quantitative class): > 7.00; % inhibiton at 1 uM PAK1 (panel of 24 kinases): 0%; % inhibiton at 1 uM PDK1 (panel of 24 kinases): 0%; % inhibiton at 1 uM SRC (panel of 24 kinases): 33%; pIC50 (PIM-2): 6.00 to 7.00; pIC50 (PIM-1; [3]): 8.70; pIC50 (PIM-1; semi-quantitative class): > 7.00; pIC50 (PIM-3; [3]): 8.22; pIC50 (PIM-3; semi-quantitative class): > 7.00

Now from value to compound, other results behind:

Stability in HLM [1] | % inhibiton at 1 uM AKT2 (panel of 24 kinases) | % inhibiton at 1 uM B_RAF V600E (panel of 24 kinases) | % inhibiton at 1 uM CDK8 CYCC (panel of 24 kinases) | % inhibiton at 1 uM CHK1 (panel of 24 kinases) | % inhibiton at 1 uM CK1 Alpha 1 (panel of 24 kinases) | % inhibiton at 1 uM DYRK 1A (panel of 24 kinases) | % inhibiton at 1 uM EGF_R (panel of 24 kinases) | % inhibiton at 1 uM FAK (panel of 24 kinases) | % inhibiton at 1 uM FGFR1 (panel of 24 kinases) | % inhibiton at 1 uM IGF1_R (panel of 24 kinases) | % inhibiton at 1 uM IKK BETA (panel of 24 kinases) | % inhibiton at 1 uM INS_R (panel of 24 kinases) | % inhibiton at 1 uM JAK2 (panel of 24 kinases) | % inhibiton at 1 uM KIT (panel of 24 kinases) | % inhibiton at 1 uM MEK1 (panel of 24 kinases) | % inhibiton at 1 uM MET (panel of 24 kinases) | % inhibiton at 1 uM PDGFR Alpha (panel of 24 kinases) | % inhibiton at 1 uM RPS5 KA1 (panel of 24 kinases) | % inhibiton at 1 uM SGK1 (panel of 24 kinases) | Compound | other results
112.7% | 0% | 11% | 14% | 6% | 3% | 7% | 8% | 16% | 39% | 13% | 0% | 6% | 1% | 26% | 2% | 0% | 14% | 36% | 6% | FC(F)(F)c1cccc(-n2nnc3cc(Cl)c(NCC4CCNCC4)nc32)c1 [2-83] | pIC50 (FLT3; [3]): 7.03; pIC50 (FLT3; semi-quantitative class): > 7.00; % inhibiton at 1 uM PAK1 (panel of 24 kinases): 11%; % inhibiton at 1 uM PDK1 (panel of 24 kinases): 3%; % inhibiton at 1 uM PLK1 (panel of 24 kinases): 0%; % inhibiton at 1 uM SRC (panel of 24 kinases): 24%; pIC50 (PIM-2): < 6.00; pIC50 (PIM-1; [3]): 7.68; pIC50 (PIM-1; semi-quantitative class): > 7.00; pEC50 [2]: 6.34; pIC50 (PIM-3; [3]): 8.22; pIC50 (PIM-3; semi-quantitative class): > 7.00
86.25% | 4% | 0% | 0% | 3% | 5% | 1% | 0% | 6% | 6% | 0% | 0% | 0% | 1% | 10% | 7% | 0% | 0% | 12% | 9% | COc1cc(NCC2CCNCC2)nc2c1nnn2-c1cccc(N(C)C)c1 [2-87] | % inhibiton at 1 uM PAK1 (panel of 24 kinases): 10%; % inhibiton at 1 uM PDK1 (panel of 24 kinases): 9%; % inhibiton at 1 uM PLK1 (panel of 24 kinases): 2%; % inhibiton at 1 uM SRC (panel of 24 kinases): 0%; pEC50 [2]: 7.00
93.95% |  | 7% |  |  | 6% | 30% | 18% | 28% | 32% | 26% | 17% | 16% | 15% | 34% | 0% | 19% | 23% | 8% | 7% | FC(F)(F)Oc1cccc(-n2nnc3cc(Cl)c(NCC4CCNCC4)nc32)c1 [2-54] | pEC50 (tumor cell lines): 5.30; pEC50 [2]: 6.22

— patent publication US20130065883A1 (Centro Nacional de Investigaceiones Oncologicas (CNIO), priority 2010, published 2013)
